The source of these data is publication PMC6057649, “Development of NanoLuc-PEST expressing Leishmania mexicana as a new drug discovery tool for axenic- and intramacrophage-based assays” (PLoS Neglected Tropical Diseases, 2018).

The test system of data set [1] is NanoLuc-PEST expressing L. mexicana axenic amastigotes. Nature of the data set: Fluorescence-based (AlamarBlue) viability assay, NanoLuc-PEST axenic amastigotes. The note with it: Leishmania mexicana, 72 h. On the technique in general: The colour change of resazurin is a common sign of viable cells or microbes.
Data set [2] has as its system L. mexicana NanoLuc-PEST intramacrophage amastigotes. Briefly: Bioluminescence-based intramacrophage assay in THP-1 infection model. In kind it is cell-based. The note with it: for EC50: read-out: EC50 against amastigotes, Intramacrophage; for EC90: read-out: EC90 against amastigotes, Intramacrophage.
For data set [3], the system named is NanoLuc-PEST expressing L. mexicana axenic amastigotes. Nature of the data set: microbe, parasite or virus in culture. In kind it is cell-based.
For data set [4], the system named is L. mexicana axenic amastigotes. Also on record: method as in PMID 9087496. To be noted: L. mexicana axenic amastigotes ref 47; read-out: Previous EC50, axenic amastigotes; cited from earlier work.
The test system of data set [5] is NanoLuc-PEST-expressing L. mexicana promastigotes and axenic amastigotes. Nature of the data set: Cycloheximide and proteasome (MG-132) assays on luciferase signal. Format: cell-based. To be noted: 5 μM, 6 hours. The method, then: Detection of NanoLuc and NanoLuc-PEST enzymes was performed using the lytic Nano-Glo Assay (Promega), according to the manufacturer’s instructions. Detection of PRE9 was performed using either the Firefly Luciferase Glow Assay (Pierce), or the Bright-Glow Assay (Promega). Bioluminescence was measured using the Promega GloMax Multi Detection System. All data was normalised by subtracting bioluminescence values for the untransformed, parental line, and all assays done in triplicate.
Cycloheximide assays were performed over 8 hours. Cells were seeded to a cell density of 5 x10^5 cells/well (100 μL/well). Cycloheximide (Sigma) was added to each well to a final concentration of 100 μM and incubated with cells for a range of time points between 0 and 8 hours. Bioluminescence was measured as described above, and the half-life of each luciferase was calculated by one phase decay non-linear regression (GraphPad Prism 6.0). Proteosome assays were performed using the method above with the addition of 5 μM MG-132 (Sigma) for 6 hours. Statistical significance was determined using a paired, two-tailed T-test (GraphPad Prism 6.0).

Another data set deals with HepG2. The note with it: ref MMV Pathogen Box website, cited from earlier work; for CC50: read-out: HepG2 CC50.
Data set [6] relates to THP-1 cell line. Briefly: Macrophage toxicity assay (PrestoBlue). The note with it: read-out: THP1 EC50, PMA-differentiated THP-1 macrophages, 72 hours.
The subject of data set [7] is L. donovani intramacrophage amastigotes. The note with it: cited from earlier work.
In data set [8] the test system is L. donovani axenic amastigotes. To be noted: cited from earlier work.
In another data set the test system is MRC5. Also on record: method as in MMV Pathogen Box website. To be noted: ref MMV Pathogen Box website; cited from earlier work.
The subject of data set [9] is THP-1 cell line.
In data set [10] the test system is L. mexicana intramacrophage amastigotes. Also on record: method as in PMID 14695832. The note with it: values in brackets ref 52, read-out: Previous EC50, intramacrophage amastigotes; cited from earlier work.
Data set [11] concerns Leishmania spp. intramacrophage amastigotes. To be noted: value in brackets ref 55, read-out: Previous EC50, intramacrophage amastigotes; cited from earlier work.
For data set [12], the system named is wild-type L. mexicana axenic amastigotes. Briefly: Fluorescence-based (AlamarBlue) viability assay, parental axenic amastigotes. To be noted: Leishmania mexicana, 72 h.
Setting [13] is: Leishmania mexicana, 72 h; read-out: EC50.
Where [14] appears, read: Leishmania mexicana; 2 µM compound, 72 hours, relative to DMSO only control, n = 4; read-out: Relative Bioluminescence (%).
[15] abbreviates: Leishmania mexicana; 10 µM compound, 72 hours, relative to DMSO only control, n = 4; read-out: Relative Bioluminescence (%).
The mark [16] stands for this setting: Leishmania mexicana; read-out: EC50 against amastigotes, Axenic.
The mark [17] stands for this setting: Leishmania mexicana; read-out: EC90 against amastigotes, Axenic.
Setting [18] is: THP-1 infection model, bioluminescence.
[19] abbreviates: 2 µM compound, 72 hours, relative to DMSO only control, n = 4.
[20] abbreviates: 10 µM compound, 72 hours, relative to DMSO only control, n = 4.
Setting [21] is: hit compounds from the axenic amastigote screen, S3 Table; read-out: EC50, Axenic Amastigotes.
Where [22] appears, read: read-out: EC50 against amastigotes, Axenic.
Where [23] appears, read: read-out: EC90 against amastigotes, Axenic.
Where [24] appears, read: Leishmania mexicana; hit compounds from the axenic amastigote screen, S3 Table; read-out: EC50, Axenic Amastigotes.
The mark [25] stands for this setting: Leishmania mexicana, THP-1 infection model, bioluminescence.

Where “and” joins values, the source holds several entries; their conditions need not be identical. Identical values can stand only once. Like-named read-outs stand apart in the source and are kept apart here. Peptide text beside a SMILES is read from it. * marks the point of attachment. Cbz = O=C(OCc1ccccc1)*

With `C[C@@H]1[C@H](O)[C@@H](C)/C=C/C=C/C=C/C=C/C=C/C=C/C=C/[C@H](O[C@@H]2O[C@H](C)[C@@H](O)[C@H](N)[C@@H]2O)C[C@@H]2O[C@](O)(C[C@@H](O)C[C@@H](O)[C@H](O)CC[C@@H](O)C[C@@H](O)CC(=O)O[C@H]1C)C[C@H](O)[C@H]2C(=O)O` [Amphotericin B, reference compound], the concentration for a half-maximal effect (EC50) (usually the concentration at which the effect is half-maximal) is 270 nM in data set [1]; 105 nM in data set [2] (Leishmania mexicana, THP-1); 200 nM in data set [3] (setting [13]); 200 to 270 nM in data set [3] (Leishmania mexicana; axenic amastigotes; span over parental and transgenic line, both bioluminescence- and fluorescence-based assays; read-out: EC50 values from the parental and transgenic line); 201 nM in data set [3] (setting [16]); 300 nM and 303 nM in data set [4]. The “decrease of bioluminescent signal” value in data set [2] is on record as at least 99%. Besides, the concentration for an effect of 90% (EC90) (in general, the concentration needed for an effect of 90%) amounted to 185 nM in [2] (Leishmania mexicana, THP-1) and 279 nM in [3] (setting [17]). For the same compound, the viability at 2 µM in data set [3] (setting [14]) is 58.3%. Also, the viability at 10 µM in data set [3] (setting [15]) came out at 48.4%.
In the case of `CC(C)C[C@@H](C=O)NC(=O)[C@H](CC(C)C)NC(=O)[C@H](CC(C)C)NC(=O)OCc1ccccc1` [MG-132] (Cbz-Leu-Leu-Leu-aldehyde), in data set [5], the “bioluminescence relative to the DMSO control” value is “statistically significant increase”.
For the compound `Cc1ccc(NC(=O)c2nc[nH]c2C(=O)Nc2nc3ccccc3[nH]2)c(C)c1` [MMV011903], the 50% effective concentration (EC50) is 2020 nM in data set [2] (setting [18]), 180 nM in data set [3] (setting [21]), 189 nM in data set [3] (setting [22]) and over 50000 nM in the data set with THP-1 cell line [6]. Further, the EC90 in data set [2] (setting [18]) was 2290 nM; in data set [3] (setting [23]), 320 nM. Also, the “Relative Bioluminescence (%)” value in data set [3] (setting [19]) was -0.43%; in data set [3] (setting [20]), -1.14%. The CC50 in the data set on HepG2 is over 10000 nM. Also, in the data set on HepG2, the “HepG2 CC20” value was 8400 nM.
In the case of `CCN(CC)S(=O)(=O)c1ccc(C(=O)Nc2cc(C)nn2-c2nc(C)c(C)c(=O)[nH]2)cc1` [MMV595321], the EC50 in data set [2] (setting [18]) was 5300 nM; in [7] (value in brackets ref 49, 53, read-out: Previous EC50, intramacrophage amastigotes), 3160 nM; in [3] (setting [21]) it was 150 nM; in [3] (setting [22]), 153 nM; in the data set with THP-1 cell line [6], over 50000 nM; in [8] (value in brackets ref 49, 53, read-out: Previous EC50, axenic amastigotes), 501 nM. Further, the EC90 in data set [2] (setting [18]) was determined as 11200 nM; in [3] (setting [23]) it was 357 nM. Besides, the “Relative Bioluminescence (%)” value is on record as -4.54% in [3] (setting [19]) and -3.10% in data set [3] (setting [20]).
Turning to `O=C(Nc1ccc2c(c1)B(O)OC2)c1ccccc1C(F)(F)F` [MMV652003], the EC50 in [2] (setting [18]) is 3640 nM; in data set [3] (setting [21]), 70 nM; in data set [3] (setting [22]), 77 nM. Moreover, the 90% effect concentration (EC90) in data set [2] (setting [18]) was found to be 10700 nM; in data set [3] (setting [23]), 104 nM. The “Relative Bioluminescence (%)” value is -1.53% in data set [3] (setting [19]) and -1.54% in data set [3] (setting [20]). Moreover, in the data set on MRC5, the CC50 was over 32000 nM. Further, the “HepG2 CC20” value in the data set on HepG2 is 400 nM.
Turning to `CCc1c(C)nc(-n2nc(C)cc2NC(=O)c2ccccc2SC)[nH]c1=O` [MMV676477], the 50% effective concentration (EC50) in the data set with THP-1 cell line [9] was over 50000 nM; in data set [2] it was 4780 nM; in [3] (setting [21]), 70 nM; in [3] (setting [22]), 69 nM. Moreover, the results for the EC90 in data set [2] and in data set [3] (setting [23]) were 6110 nM and 168 nM, respectively. Further, the “Relative Bioluminescence (%)” value was -0.98% in data set [3] (setting [19]) and -0.92% in data set [3] (setting [20]). In the data set with HepG2, the CC50 is 1300 nM.
Take `C[C@]1(COc2ccc(N3CCC(Oc4ccc(OC(F)(F)F)cc4)CC3)cc2)Cn2cc([N+](=O)[O-])nc2O1` [MMV688262, Delamanid, reference compound]: the concentration for a half-maximal effect (EC50) in data set [2] (Leishmania mexicana, THP-1) was 1780 nM; in data set [7] (value in brackets ref 54, read-out: Previous EC50, intramacrophage amastigotes), 86.5 to 298 nM; in data set [3] (setting [24]), 30 nM; in [3] (setting [16]), 33 nM; in data set [8] (value in brackets ref 54, read-out: Previous EC50, axenic amastigotes), 5 nM. Also, the EC90 came to 25100 nM in data set [2] (Leishmania mexicana, THP-1) and 112 nM in data set [3] (setting [17]). The viability at 2 µM in data set [3] (setting [14]) is -4.37%. In addition, the viability at 10 µM in [3] (setting [15]) is -2.71%. The CC50 in the data set on HepG2 is 72500 nM.
In the case of `CC(C)(C)[C@H]1CC[C@H](CC2=C(O)C(=O)c3ccccc3C2=O)CC1` [MMV689480, Buparvaquone, reference compound], the EC50 in data set [2] (setting [25]) was 394 nM; in data set [3] (setting [24]), 2.2 nM; in data set [3] (setting [16]), 2 nM; in [10], 1250 nM and 1440 nM. Further, the figures for the EC90 in data set [2] (setting [25]) and in data set [3] (setting [17]) were 1260 nM and 11 nM, respectively. Further, the viability at 2 µM in data set [3] (setting [14]) was -0.24%. Further, the viability at 10 µM in data set [3] (setting [15]) was 0.15%.
Regarding `COc1ccc(Oc2ccc([C@@H](C)N(C)c3ncc4c(N)nc(N)nc4n3)cc2)cc1` [MMV690102], the concentration giving a half-maximal response (EC50) in data set [2] (setting [18]) is 107 nM; in [7] (value in brackets ref 49–51, read-out: Previous EC50, intramacrophage amastigotes), 100 nM; in data set [3] (setting [22]), 60 nM; in [8] (value in brackets ref 49–51, read-out: Previous EC50, axenic amastigotes) it was 40 nM. For the same compound, the EC90 in data set [2] (setting [18]) was determined as 160 nM; in data set [3] (setting [23]), 123 nM. In addition, the results for the “Relative Bioluminescence (%)” value in data set [3] (setting [19]) and in data set [3] (setting [20]) were -5.29% and -1.34%, respectively. The CC50 with MRC5 is 5400 nM.
For `Cc1cc(OCC(=O)Nc2ccc(C(C)C)cc2)n(C)c(=O)c1C#N` [MMV1198433], the “Relative Bioluminescence (%)” value stood at 82.52% in data set [3] (setting [19]) and 91.16% in data set [3] (setting [20]).
The matching figures for `CCOC(=O)c1noc(N)c1-c1ccccc1` [MMV1236379]: 77.18% and 52.39%.
In the case of `CCCCCCCCCCCCCCCCOP(=O)([O-])OCC[N+](C)(C)C` [Miltefosine, reference compound], the EC50 in [1] is 1990 nM; in data set [2] (Leishmania mexicana, THP-1) it was 10900 nM; in data set [3] (setting [13]), 2190 nM; in [3] (Leishmania mexicana, read-out: EC50 against amastigotes, Axenic), 1990 nM; in data set [11], 15700 nM; in data set [12], 1110 nM. In addition, the EC90 in [2] (Leishmania mexicana, THP-1) was determined as 37300 nM; in data set [3] (setting [17]) it was 19800 nM. For the same compound, in data set [3] (setting [14]), the viability at 2 µM was 43%. The viability at 10 µM in data set [3] (setting [15]) is 11.5%.
Regarding “Levofloxacin (-)-ofloxacin [MMV687798, reference compound]”, the figures for the “Relative Bioluminescence (%)” value in data set [3] (setting [19]) and in data set [3] (setting [20]) were 83.03% and 74.50%, respectively.
